# Assay results published in US5527820A, “Antibiotics having immunosuppressive activity, delaminomycins and processes for the production of the same” (priority 1992, dated 1996).
# Where two headings read alike, the source gives them in different places.
# Assays:
# Candida Yu-1200 = assay: MIC, agar plate dilution method; assay type: cell-based; details: YU1200, 27° C., 42 hours, nutrient agar containing glucose
# Piricularia oryzae = assay: microbe, parasite or virus in culture; assay type: cell-based; details: 42 h
# [1] = system: delayed-type hypersensitivity (DTH); assay: Suppressive effect on delayed-type hypersensitivity (DTH) in mouse, intraperitoneal; assay type: in vivo, mouse (CDF1); details: intraperitoneal once a day, 0-4th day
# From the text: Suppressive effect of delaminomycins on delayed-type hypersensitivity (DTH) in mouse
# CDF1 mice were immunized by intravenously injecting sheep red blood cells (10^5 cells/mouse). On the 4th day after the immunization, sheep red blood cells (10^8 cells/mouse) were subcutaneously injected into the footpad of mice for the elicitation to cause a delayed-type hypersensitivity (DTH). Test compound was intraperitoneally administered to the mice once a day from the 0th day to 4th day after the immunization. On the 5th day after the elicitation the thickness of the mouse footpad was measured to estimate the suppressive effect of the test compound on the DTH response. The suppressive effect of the test compound was evaluated in terms of the inhibition rate (%) as calculated according to the following equation:
# (§1) Inhibition rate (%)=100-(T/C×100)
# wherein T denotes the thickness of the footpad when administering the test compound, but C denotes the thickness of the footpad when administering no test compound.
# [2] = in vivo
# Mouse leukemia EL-4 = assay: Inhibitory activity on proliferation of cancer cells; assay type: cell-based; details: EL4
# Candida krusei F-5 = assay: MIC, agar plate dilution method; assay type: cell-based; details: Pichia kudriavzevii, F5; 27° C., 42 hours, nutrient agar containing glucose
# Aspergillus niger F-16 = assay: MIC, agar plate dilution method; assay type: cell-based; details: F16, 27° C., 42 hours, nutrient agar containing glucose
# Pellicularia sasakii = assay: MIC, agar plate dilution method; assay type: cell-based; details: 27° C., 42 hours, nutrient agar containing glucose
# [3] = system: delayed-type hypersensitivity (DTH); assay: Suppressive effect on delayed-type hypersensitivity (DTH) in mouse, oral; assay type: in vivo, mouse (CDF1); details: oral once a day, 0~4th day
# Procedure: CDF1 mice were immunized by intravenously injecting sheep red blood cells (10^5 cells/mouse). On the 4th day after the immunization, sheep red blood cells (10^8 cells/mouse) were subcutaneously injected into the footpad of mice for the elicitation to cause a delayed-type hypersensitivity. Test compound was orally administered to the mice once a day from the 0 th day to the 4 th day after the immunization. On the 5th day after the elicitation, the thickness of the mouse footpad was measured to estimate the suppressive effect of the test compound on DTH. The suppressive effect of the test compound was evaluated in terms of the inhibition rate (%) as calculated according to the following equation:
# as §1
# wherein T denotes the thickness of the footpad when the test compound was administered, but C denotes the thickness of the footpad when no test compounnd was administered.
# [4] = system: spleen cells (T cells activated by Concanavalin A); assay: Inhibitory activity against blastogenesis and proliferation of spleen cells caused by mitogen (Con A); assay type: cell-based, mouse (CDF1); details: for IC50: read-out: IC50 (inhibition of blastogenesis and proliferation of spleen lymphocyte caused by Con A); for activity inhibitory to the reaction of proliferation of mouse spleen cells activated with Concanavalin A: in vitro, result in words
# Candida tropicalis F-1 = assay: MIC, agar plate dilution method; assay type: cell-based; details: F1, 27° C., 42 hours, nutrient agar containing glucose
# [5] = system: Trichophyton asteroides 429; assay: MIC, agar plate dilution method; assay type: cell-based; details: 27° C., 42 hours, nutrient agar containing glucose
# Mouse leukemia P388D1 = assay: Inhibitory activity on proliferation of cancer cells; assay type: cell-based
# [6] = system: Trichophyton mentagrophytes F-15 (833); assay: MIC, agar plate dilution method; assay type: cell-based; details: 27° C., 42 hours, nutrient agar containing glucose
# [7] = system: Cryptococcus neoformans F-10; assay: MIC, agar plate dilution method; assay type: cell-based; details: F10, 27° C., 42 hours, nutrient agar containing glucose
# Mouse leukemia L-1210 = assay: Inhibitory activity on proliferation of cancer cells; assay type: cell-based; details: L1210
# [8] = system: Candida pseudotropicalis F-2; assay: MIC, agar plate dilution method; assay type: cell-based; details: Kluyveromyces marxianus, F2; 27° C., 42 hours, nutrient agar containing glucose
# Human Lymphoma Jurkat = assay: Inhibitory activity on proliferation of cancer cells; assay type: cell-based
# Xanthomonas citri = assay: MIC, agar plate dilution method; assay type: cell-based; details: 27° C., 42 hours, nutrient agar containing glucose
# Procedure: (§2) Delaminomycins A, B, C, A2, B2 and C2 according to this invention further have an antibacterial activity against a variety of bacteria. The minimum growth inhibitory concentrations (MIC) (μg/ml) of the novel antibiotics of this invention on various bacteria and fungi as measured by the agar plate dilution method are shown in Table 5a, Table 5b, Table 5c and Table 5d below.
# (§3) Evaluated after culturing at 27° C. for 42 hours in nutrient agar
# (§4) medium containing glucose.
# Cochliobolus miyabeanus = assay: MIC, agar plate dilution method; assay type: cell-based; details: Bipolaris oryzae; 27° C., 42 hours, nutrient agar containing glucose
# Procedure: as §2, §3, §4
# Mouse melanoma B-16 = assay: Inhibitory activity on proliferation of cancer cells; assay type: cell-based; details: B16
# Gram-positive bacteria = assay: Antibacterial activity to Gram-positive bacteria; assay type: cell-based; details: result in words
# From the text: as §2
# [9] = system: Saccharomyces cerevisiae F-7; assay: MIC, agar plate dilution method; assay type: cell-based; details: F7, 27° C., 42 hours, nutrient agar containing glucose
# Candida albicans 3147 = assay: MIC, agar plate dilution method; assay type: cell-based; details: 27° C., 42 hours, nutrient agar containing glucose
# [10] = system: nylon wool-passed cells of spleen cells (responder cell; T cells); assay: Inhibitory activity to the mixed lymphocyte culture reaction; assay type: cell-based, rat (Fischer F344 responder; WKY stimulator); details: for inhibition at 0.1 µg/mL: 0.10 μg/ml test compound; for inhibition at 0.39 µg/mL: 0.39 μg/ml test compound; for inhibition at 1.56 µg/mL: 1.56 μg/ml test compound; for inhibition at 25 µg/mL: 25 μg/ml test compound; for inhibition at 100 µg/mL: 100 μg/ml test compound; for IC50: 120 hours, 3H-thymidine incorporation, read-out: IC50 (inhibition of mixed lymphocyte culture reaction); for activity to inhibit the proliferation of the T cells (responder cell) in mixed lymphocyte culture reaction: in vitro, result in words
# Solubility = details: result in words
# [11] = Absorption into the digestive tracts on oral administration; details: result in words
# [12] = Acute toxicity (LD50) in ICR mice; details: mouse, in vivo, ip, intraperitoneally
# [13] = Rattus norvegicus, T-cell, read-out: Inhibition rate
smiles,measurement,setting,value
CCC(O)C(C)/C=C/C=C/C1CC2C=CC3CC(C)CC(C)C3C2(C)C(=O)C12C(=O)NC(O)C2=O (stereo not drawn) [Delaminomycin A2],MIC,Candida Yu-1200,> 100 µg/mL
same,MIC,Piricularia oryzae,> 100 µg/mL
same,Inhibition rate (DTH footpad thickness),[1]; 15.6 μg/mouse,1.9%
same,Inhibition rate (DTH footpad thickness),[1]; 62.5 μg/mouse,3.5%
same,Inhibition rate (DTH footpad thickness),[1]; 250 μg/mouse,26.6%
same,Inhibition rate (DTH footpad thickness),[1]; 1000 μg/mouse,99.3%
same,absorption into the digestive tracts / oral absorption,[2],hardly absorbed into the digestive tracts
same,IC50,Mouse leukemia EL-4,4.1 µg/mL
same,MIC,Candida krusei F-5,> 100 µg/mL
same,MIC,Aspergillus niger F-16,> 100 µg/mL
same,MIC,Pellicularia sasakii,> 50 µg/mL
same,Inhibition rate (DTH footpad thickness),[3]; 0.5 mg/mouse,7.7%
same,Inhibition rate (DTH footpad thickness),[3]; 2.0 mg/mouse,23.4%
same,Inhibition rate (DTH footpad thickness),[3]; 8.0 mg/mouse,36.1%
same,IC50,"[4]; Mus musculus, T-cell",0.78 µg/mL
same,inhibition at 0.2 µg/mL,"[4]; Mus musculus, T-cell, 0.20 μg/ml test compound, read-out: Inhibition rate",1.5%
same,inhibition at 0.78 µg/mL,"[4]; Mus musculus, T-cell, 0.78 μg/ml test compound, read-out: Inhibition rate",50.5%
same,inhibition at 3.1 µg/mL,"[4]; Mus musculus, T-cell, 3.1 μg/ml test compound, read-out: Inhibition rate",76.3%
same,inhibition at 12.5 µg/mL,"[4]; Mus musculus, T-cell, 12.5 μg/ml test compound, read-out: Inhibition rate",95.1%
same,inhibition at 50 µg/mL,"[4]; Mus musculus, T-cell, 50 μg/ml test compound, read-out: Inhibition rate",96.5%
same,activity inhibitory to the reaction of proliferation of mouse spleen cells activated with Concanavalin A,[4],exhibit an activity inhibitory to the reaction of proliferation of mouse spleen cells
same,MIC,Candida tropicalis F-1,> 100 µg/mL
same,MIC,[5],> 100 µg/mL
same,IC50,Mouse leukemia P388D1,10 µg/mL
same,MIC,[6],> 100 µg/mL
same,MIC,[7],> 100 µg/mL
same,IC50,Mouse leukemia L-1210,3.7 µg/mL
same,MIC,[8],> 100 µg/mL
same,IC50,Human Lymphoma Jurkat,5.9 µg/mL
same,MIC,Xanthomonas citri,> 100 µg/mL
same,MIC,Cochliobolus miyabeanus,> 100 µg/mL
same,IC50,Mouse melanoma B-16,8.3 µg/mL
same,antibacterial activity to Gram-positive bacteria,Gram-positive bacteria,antibacterial activity to Gram-positive bacteria
same,MIC,[9],> 100 µg/mL
same,MIC,Candida albicans 3147,> 100 µg/mL
same,inhibition at 0.1 µg/mL,[10]; [13],16%
same,inhibition at 0.39 µg/mL,[10]; [13],5%
same,inhibition at 1.56 µg/mL,[10]; [13],0%
same,inhibition at 25 µg/mL,[10]; [13],94%
same,inhibition at 100 µg/mL,[10]; [13],56%
same,IC50,"[10]; Rattus norvegicus, T-cell",13.9 µg/mL
same,activity to inhibit the proliferation of the T cells (responder cell) in mixed lymphocyte culture reaction,[10],have an activity to inhibit the reaction of proliferation of the T cells
CCC(O)C(C)/C=C/C=C/C(O)CC1C=CC2CC(C)CC(C)C2C1(C)C(=O)C1C(=O)NC(O)C1=O (stereo not drawn) [Delaminomycin A],Solubility,Solubility; various solvents,"soluble in methanol but slightly soluble or insoluble in water, acetone, ethyl ether and n-hexane"
same,Solubility in water,Solubility; water,barely soluble in water
same,MIC,Candida Yu-1200,> 100 µg/mL
same,MIC,Piricularia oryzae,> 100 µg/mL
same,Inhibition rate (DTH footpad thickness),[1]; 15.6 μg/mouse,0.1%
same,Inhibition rate (DTH footpad thickness),[1]; 62.5 μg/mouse,52.8%
same,Inhibition rate (DTH footpad thickness),[1]; 250 μg/mouse,85.3%
same,Inhibition rate (DTH footpad thickness),[1]; 1000 μg/mouse,99.2%
same,IC50,Mouse leukemia EL-4,17.9 µg/mL
same,MIC,Candida krusei F-5,> 100 µg/mL
same,MIC,Aspergillus niger F-16,> 100 µg/mL
same,absorption into the digestive tracts / oral absorption,[11],hardly absorbed into the digestive tracts
same,MIC,Pellicularia sasakii,> 100 µg/mL
same,IC50,"[4]; Mus musculus, T-cell",17.5 µg/mL
same,inhibition at 1.56 µg/mL,"[4]; Mus musculus, T-cell, 1.56 μg/ml test compound, read-out: Inhibition rate",0%
same,inhibition at 6.25 µg/mL,"[4]; Mus musculus, T-cell, 6.25 μg/ml test compound, read-out: Inhibition rate",31%
same,inhibition at 25 µg/mL,"[4]; Mus musculus, T-cell, 25 μg/ml test compound, read-out: Inhibition rate",57%
same,inhibition at 100 µg/mL,"[4]; Mus musculus, T-cell, 100 μg/ml test compound, read-out: Inhibition rate",88%
same,activity inhibitory to the reaction of proliferation of mouse spleen cells activated with Concanavalin A,[4],exhibit an activity inhibitory to the reaction of proliferation of mouse spleen cells
same,MIC,Candida tropicalis F-1,> 100 µg/mL
same,MIC,[5],> 100 µg/mL
same,IC50,Mouse leukemia P388D1,14 µg/mL
same,MIC,[6],> 100 µg/mL
same,MIC,[7],> 100 µg/mL
same,IC50,Mouse leukemia L-1210,> 100 µg/mL
same,MIC,[8],> 100 µg/mL
same,IC50,Human Lymphoma Jurkat,3.6 µg/mL
same,MIC,Xanthomonas citri,> 100 µg/mL
same,MIC,Cochliobolus miyabeanus,> 100 µg/mL
same,IC50,Mouse melanoma B-16,21.1 µg/mL
same,antibacterial activity to Gram-positive bacteria,Gram-positive bacteria,antibacterial activity to Gram-positive bacteria
same,LD50,[12],> 500 mg/kg
same,MIC,[9],> 100 µg/mL
same,MIC,Candida albicans 3147,> 100 µg/mL
same,inhibition at 0.1 µg/mL,[10]; [13],17.6%
same,inhibition at 0.39 µg/mL,[10]; [13],32.8%
same,inhibition at 1.56 µg/mL,[10]; [13],17.5%
same,inhibition at 6.25 µg/mL,"[10]; Rattus norvegicus, T-cell, 6.25 μg/ml test compound, read-out: Inhibition rate",55.3%
same,inhibition at 25 µg/mL,[10]; [13],95%
same,inhibition at 100 µg/mL,[10]; [13],96.4%
same,IC50,"[10]; Rattus norvegicus, T-cell",8.6 µg/mL
same,activity to inhibit the proliferation of the T cells (responder cell) in mixed lymphocyte culture reaction,[10],have an activity to inhibit the reaction of proliferation of the T cells
